US20100216693A1, “COMPOSITIONS AND METHODS OF TREATING DIABETES” (priority 2005, published 2010)
Where two headings read alike, the source gives them in different places. Values belong to the compound of their own block, whether it stands above or below them.

What was measured:
[1] = in vivo; cited from earlier work
[2] = target: T1, insulin-insulin interaction (Homo sapiens, UniProt P01308); test: SPR: effect of substances mixed with insulin in solution on insulin-insulin interaction; format: binding; conditions: for effect of additive on insulin-insulin interaction: pH 5, insulin 10 μM, zinc sulfate in molar ratios higher than insulin, EDTA up to 10 μM
T1 construct: 28; purchased Novo Nordisk A/S, Denmark Actrapid
T1 sequence (P01308 25-54 limits assumed): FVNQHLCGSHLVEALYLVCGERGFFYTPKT
T1 sequence (P01308 90-110 limits assumed): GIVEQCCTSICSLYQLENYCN
Protocol: BiacorA Biacore 3000 instrument was employed for the interaction measurements based on surface plasmon resonance (SPR). Interaction analyses were performed at 25° C. in 10 mM Na-citrate buffers pH 3, 4, 5, 10 mM bis-Tris, pH 6, and 10 mM Tris/HC1, pH 7, all buffers containing 100 mM NaCl and 0.005% 5P20. Flow rates for the binding analyses were kept at 20 μl/min. […] Insulin was immobilized on a carboxymethyl-modified dextran surface via both amine and carboxyl coupling, using the surface thiol method, in two different lanes of Biacore CM5 chips. The immobilization was carried out according to the procedure described in the kits. In brief, the sensor chip surface was first washed with 4 M LiCl/HBS for 1 min and then with 0.2% SP20/HBS for 1 mM. The surface was activated according to standard procedure with an injection of 0.05 M NHS/0.2 M EDC for 7 min. Desalted insulin solution was diluted in acetate buffer, pH 4.5, to 20 μg/ml and injected at 50/min for different time intervals. For surface thiol coupling, the surface was first activated with 0.05 M NHS/0.2 M EDC for 2 min followed by a 3 min injection of 40 mM cystamine dihydrochloride and then 0.1 M DTE for 3 min. […] The mixture was incubated for 10 mM at room temperature and excess PDEA was removed on a NAP-10 column. The purified PDEA ligand was injected for 7 min, soon after DTE, and finally the surface was washed with 20 mM PDEA in 0.1 M sodium acetate, 1.0 M NaCl. For quick regeneration of the surface, 2 M guanidine-HC1, pH 6.4, was employed. For controls, lanes activated and deactivated according to the standard procedures were used. For subtraction of noise from the data, running buffer only was injected to all surfaces. For the C-terminal attachment, surface-thiol coupling to 4000-5000 RU was used, and for N-terminal attachment, amine coupling to 800-1000 RU as achieved on different CM5 chips. However for kinetic analysis immobilization was carried out in a controlled condition and around 1000 RU for C-terminal and 400 RU for N-terminal coupling were immobilized. A surface activated with EDC/NHS and deactivated with ethanolamine was used as a control surface for N-terminally immobilized insulin and a surface treated with EDC/NHS, cysteine/DTE and finally deactivated with PDEA-NaCl was used as a control for C-terminally immobilized insulin. Biacore data were analyzed with Bia-evaluation software 4.1. All calculations based on numerical approaches, including simulations and global curve fitting for estimates of active concentrations, were performed with IGOR Pro (version 4.01.A, WaveMetrics, Inc.). However, C-peptide, mixed with insulin in solution, influences the insulin-insulin monomer interactions measured above. […] This elevated interaction can be seen at different pH from 3-7. The phenomenon of more pronounced interaction was clearer when concentrations higher than 0.5 μM were used then below 0.5 μM. […] All concentrations were run in triplicates and in random order.

immobilized insulin = target: T2, immobilized insulin (Homo sapiens, UniProt P01308); test: SPR (Biacore 3000) insulin-insulin interaction, free insulin over chip-immobilized insulin; format: binding; conditions: for Kd: C-terminally immobilized insulin, global fit, analyte with two binding sites competing for one site, insulin 0.25-10 μM
T2 construct: 28; purchased Novo Nordisk A/S, Denmark Actrapid
T2 sequence (P01308 25-54 limits assumed): as the sequence (P01308 25-54 limits assumed) above
Protocol: BiacorA Biacore 3000 instrument was employed for the interaction measurements based on surface plasmon resonance (SPR). Interaction analyses were performed at 25° C. in 10 mM Na-citrate buffers pH 3, 4, 5, 10 mM bis-Tris, pH 6, and 10 mM Tris/HC1, pH 7, all buffers containing 100 mM NaCl and 0.005% 5P20. Flow rates for the binding analyses were kept at 20 μl/min. Insulin was desalted and buffer was exchanged on NAP 10 columns from Amersham Biosciences.
Working insulin solution was prepared after removing the excess of zinc sulfate, meta-cresol and other salts from the original solution by passing through a NAP 10 column in the desired buffer for experiments. The desalted insulin was diluted to 1 mM, aliquoted and stored at −20° C.
Insulin was immobilized on a carboxymethyl-modified dextran surface via both amine and carboxyl coupling, using the surface thiol method, in two different lanes of Biacore CM5 chips. The immobilization was carried out according to the procedure described in the kits. In brief, the sensor chip surface was first washed with 4 M LiCl/HBS for 1 min and then with 0.2% SP20/HBS for 1 mM. The surface was activated according to standard procedure with an injection of 0.05 M NHS/0.2 M EDC for 7 min. Desalted insulin solution was diluted in acetate buffer, pH 4.5, to 20 μg/ml and injected at 50/min for different time intervals. For surface thiol coupling, the surface was first activated with 0.05 M NHS/0.2 M EDC for 2 min followed by a 3 min injection of 40 mM cystamine dihydrochloride and then 0.1 M DTE for 3 min. At the same time, 2-(2-pyridinyldithio)ethaneamine hydrochloride (PDEA) insulin was prepared by dissolving 0.5 mg insulin in 0.5 ml 0.1 M MES, adding to it 0.25 ml of (15 mg/ml) PDEA in 0.1 M MES, pH 5, and 25 μl 0.4M EDC. The mixture was incubated for 10 mM at room temperature and excess PDEA was removed on a NAP-10 column. The purified PDEA ligand was injected for 7 min, soon after DTE, and finally the surface was washed with 20 mM PDEA in 0.1 M sodium acetate, 1.0 M NaCl. For quick regeneration of the surface, 2 M guanidine-HC1, pH 6.4, was employed. For controls, lanes activated and deactivated according to the standard procedures were used. For subtraction of noise from the data, running buffer only was injected to all surfaces.
For the C-terminal attachment, surface-thiol coupling to 4000-5000 RU was used, and for N-terminal attachment, amine coupling to 800-1000 RU as achieved on different CM5 chips. However for kinetic analysis immobilization was carried out in a controlled condition and around 1000 RU for C-terminal and 400 RU for N-terminal coupling were immobilized. […]
Biacore data were analyzed with Bia-evaluation software 4.1. […]

insulin = target: T3, insulin (Homo sapiens, UniProt P01308); test: Non-denaturing nano-electrospray mass spectrometry of insulin, C-peptide and control peptides; format: binding; conditions: ESI-MS
T3 construct: 28; purchased Novo Nordisk A/S, Denmark Actrapid
T3 sequence (P01308 25-54 limits assumed): as above
Protocol: For mass spectrometric analysis, preparation of concentrated insulin stock solution was performed essentially as described [Nettleton et al, 2000, Biophys J. 79:1053]. Briefly, insulin (NovoNordisk A/S, Denmark) was concentrated to 100 μM using ultrafiltration spin-filters (NanoSep, PallGellman, MWCO: 3000 Da). This stock solution was then buffer-exchanged to water, pH 5 (HCl), by extended dialysis. For all experiments, insulin and C-peptide stock solutions were diluted in water-HC1 (pH 5) to reach the indicated concentrations. C-peptide was prepared as a 746 μM stock solution in water and all control peptides were prepared similarly.
Mass spectrometry data were recorded with a QTOF Ultima API instrument (Waters, Milford, Mass.) operated in the positive ion mode. Sample solutions were analyzed by nanoelectrospray from conductive borosilicate glass capillaries (Proxeon Biosystems A/S, Odense, Denmark). Instrument settings were not modified for the observation of non-covalent complexes, other than that the “cone” and the “RF-lens” settings were set to 90 and 50 V, respectively.
The binding between insulin and C-peptide in the gas-phase was studied by non-denaturing electrospray mass spectrometry using a method analogous to that of Nettleton et al [Nettleton et al, 2000, Biophys J. 79:1053].

[3] = s.c. injection of C-peptide plus soluble insulin (CI-day) vs insulin plus diluent (I-day), glucose clamp, Type 1 diabetic patients; format: in vivo, human
Protocol: Apart from insulin they had no other medication. All patients received injections of soluble insulin before meals and intermediate-acting insulin at bedtime. Six patients had simplex retinopathy and two of these (nos. 4 and 8) also had microalbuminuaria. All subjects were informed of the purpose, nature and possible risks before giving their consent to participate in the study, which was approved by the local Ethics Committee. The experiments were carried out on two days separated by at least one week. The patients were admitted to the hospital at 8 p.m. in the evening before the study day. They received their last dose of insulin at 4-6 p.m. In order to clear the subcutaneous depots of insulin no intermediate-acting insulin was given at bedtime. Instead, an intravenous infusion of insulin was started at the time of admission. […] On the study day the investigation started at 7.30 a.m. after an overnight fast. A short teflon catheter was inserted into an antecubital vein for blood sampling. […] The injections were given with an automatic injection device (which allowed standardization of speed and depth) approximately 100 mm lateral to the umbilicus into the middle of the subcutaneous tissue, the depth of which was predetermined with ultrasound. After the injections plasma glucose was allowed to decrease to 3.5 mmol/l, whereafter it was maintained at 3.5-5 mmol/l using a variable glucose infusion (DeFronzo R, Tobin J, Andres R, American Journal of Physiology 237:[…]-[…], 1979) The patients were followed for 6 hours. Blood samples for the determination of plasma glucose, free insulin, C-peptide, FFA and glucagon were taken at timed intervals. […] Plasma free insulin was determined by radioimmunoassay after immediate polyethylene glycol precipitation (Arnquist H, Olsson P, von Schenk H, Clinical Chemistry 33:93-96, 1987). C-peptide (Heding L, Diabetologia 11:541-548, 1975) and glucagon were also analyzed by radioimmunoassay using a commercially available kit (MILAB, Malmö, Sweden). Plasma […], Greenberg […], Goetz F, Metabolism 35:122-125, 1986) was determined by a fluorometric method. Standard statistical methods including Wilcoxon's nonparametric test, Student's paired t-test and linear regression analyses were performed when applicable. Results are presented as mean values±SEM. […] The areas under the plasma insulin, and free fatty acid concentration curves were computed by trapezoidal integration.

Compound: zinc insulin (Lente): human insulin preparation, zinc insulin, with extended duration
effective duration [1]: 12 to 20 h
onset of action [1]: 120 to 240 min
peak action [1]: 4 to 10 h

Compound: regular insulin: regular human insulin
effective duration [1]: 8 to 10 h
onset of action [1]: 30 to 60 min
peak action [1]: 2 to 3 h

Compound: Lispro
effective duration [1]: 4 to 6 h
onset of action [1]: 5 to 15 min
peak action [1]: 0.5 to 1.5 h

effect of additive on insulin-insulin interaction [2]: promoted insulin-insulin interaction
Compound: O=C(O)CN(CCN(CC(=O)O)CC(=O)O)CC(=O)O [EDTA]

Compound: Insulin Glulisine
action / pharmacokinetic profile compared with other rapid acting analogues [1]: pharmacokinetic profile similar to Lispro and Aspart

Kd (immobilized insulin; read-out: dissociation constant KD1 (slow off rate)): 2.71 µM
Kd (immobilized insulin; read-out: dissociation constant KD2 (rapid off rate)): 4.65 µM
lowest insulin solution concentration at which binding is noticeable (immobilized insulin; pH 5): 0.05 µM
pH of highest (maximum) insulin-insulin binding interaction (immobilized insulin; pH range 3-7): 5
insulin concentration at which dimerization is detectable (insulin): 3 µM
insulin concentration at which higher polymers up to hexamers are detectable (insulin): 30 µM
Compound: Human insulin

Compound: O=S(=O)([O-])[O-].[Zn+2] [zinc sulfate]
effect of additive on insulin-insulin interaction [2]: diminished insulin interaction

stimulation of SPR-measurable binding in mixture with insulin in the flow-through solution ([2]; Example 10): stimulated SPR-measurable binding
Compound: C-terminal pentapeptide: pentapeptide EGSLQ (SEQ ID NO. 2), residues 27-31 of native human C-peptide (Pentapeptide of C-peptide)
enhancement of insulin-insulin binding relative to native C-peptide ([2]; 1:1 molar ratio (FIG. 15)): as equally effective as the native C-peptide

Compound: I: soluble insulin (Humulin; 10U) and C-peptide diluent, injected s.c.
AUC for plasma FFA concentration 0-360 min ([3]; 0-360 min): 129 ± 17 mmol·min/L
plasma FFA 10 min after the injections ([3]; 30 min after cessation of i.v. insulin infusion): 0.80 ± 0.11 mmol/L
AUC for plasma FFA concentration 0-180 min ([3]; after correction for the plasma free insulin area, p<0.01): 55.6 ± 5.1 mmol·min/L
area under the plasma IRI curve (0-360 min) ([3]; human, in vivo): 5847±430 mU/l×min
plasma glucose at the beginning of the glucose infusions ([3]; human, in vivo): 3.5 ± 0.05 mmol/L
plasma C-peptide at 360 min ([3]; mean±SEM): 0.10 ± 0.02 nmol/L
patients requiring intravenous infusion of glucose to avoid hypoglycemia ([3]; nine patients): 7 of 9
time of peak plasma insulin (IRI) ([3]; s.c. insulin 10 U): 88 ± 11 min
duration of glucose infusion ([3]; variable glucose infusion to avoid hypoglycemia): 124 ± 28 min
